Test results taken from publication PMC10447463, “Data-mining unveils structure–property–activity correlation of viral infectivity enhancing self-assembling peptides” (Nature Communications, 2023).
Where two headings read alike, the source gives them in different places.

What was measured:
[1] = assay type: physicochemical; conditions: STD prep
Protocol: For ATR FT–IR spectroscopy measurements, 200 µL of the respective 1 mg/mL PNF solution was lyophilized and the resulting powder used for measurement. All spectra were recorded on a Bruker Tensor 27 spectrometer with a diamond crystal as ATR element (PIKE MiracleTM, spectral resolution 2 cm^-1). Every sample was measured with 64 scans. Data were analyzed with OriginLab software and calculation of β–sheet content was conducted according to a previous report. TEM. For TEM measurements 5 µL of PNF fibrils (1 mg/mL) were placed on copper grids coated with carbon and formvar layer (300 mesh, Plano GmbH). After 10 min incubation time, the grids were staining with 4% uranyl acetate solution for 2.5 min and washed with water. Measurements were performed on a Jeol 1400 electron microscope with 120 kV acceleration voltage. CR Assay. For the determination of the amount of peptide monomer converting into nanostructures the amine reactive dye fluorescamine was used analogous to a previous reported protocol. Briefly, 100 µL of the preformed PNF solution was centrifuged in a Vivaspin 500 tube (3 kDa MWCO) to separate fibers from free peptide monomer (16200 x g, 4 °C, 45 min). The filtrate and 100 μL of the non-filtered PNF sample were lyophilized and dissolved in 30 μL DMSO. 10 μL of the filtrate and non-filtered DMSO samples were submitted in a black UV Star® 384 microliter well–plates (Greiner bio–one) and 3 μL of the fluorescamine solution (10 mg/mL, DMSO) was added to measure the fluorescence enhancement. After 20 min of incubation at RT, fluorescence was recorded on an Infinite® M1000 PRO microplate reader (Tecan) at λem = 470 nm upon excitation at λex = 365 nm with 10 nm bandwidths and multiple reads per well (3×3). Measurements were repeated in triplicates and averaged with standard deviation. All values were calculated as n-fold fluorescence enhancement (DMSO only as a reference was set to 1). The conversion rate CR was defined according to the equation Eq. (3).3 CR=100−100×fluorescenceintensityfiltrate/fluorescenceintensityoriginal[%]
(§1) 1. Remarks on experimental parameters and bioinformatic descriptors
1.1 Experimental parameters
Transmission electron microscopy (TEM) measurements. TEM measurements were used to control if peptides assemble. The assemblies were categorized in non -fibrillar structures (no assembly, […]
grid but only amorphous aggregates. In contrast, peptides defined as fibrillar may also include amorphous structures. Amongst nonfibrillar assemblies also amorphous aggregates are summarized.
Amorphous aggregates are defined as structures with high β-sheet content which lack long-range order, that is crystallinity or fibril formation. It is generally assumed that these structures might be

[2] = Zeta-potential measurement; assay type: physicochemical; design: Zeta-Potential: unit not given here; conditions: for Zeta-pot. / mV: zeta potential of peptide, Fig S15 source data
Protocol: (§2) 4 µL of 1 mg/mL peptide fibrils solution is added to a 20 µL, 50 µM ThT–solution in PBS. The mixture is incubated for 15 min at RT to allow binding of ThT dye with β–sheet rich structures. For reference PBS (4 µL) was added instead of peptide fibril solution. The samples were placed in black UV Star® 384 microliter well–plates (Greiner bio–one). Fluorescence spectra were recorded on an Infinite® M1000 PRO microplate reader (Tecan) at λem = 488 nm upon excitation at λex = 440 nm with 10 nm bandwidths and multiple reads per well (3×3). Measurements were repeated in triplicates and averaged with standard deviation. […] Zeta-Potential. For the determination of the surface charge of aggregated peptides zeta-potential measurements were conducted with a Zetasizer Nano ZS, Malvern Instruments. Unless stated otherwise the peptides were dissolved from DMSO (10 mg/mL) in PBS (pH 7.4) to concentration of 1 mg/mL and incubated for 1d at RT. Just before the measurement the 60 µL of the peptides were further diluted in 600 µL KCl (aq, 1 mM) in a 1 mL disposable folded capillary cells (DTS–1060, Zetasizer Nano series, Malvern). The zeta potential of the peptides was derived from the electrophoretic mobility based on the Smoluchowski formula. All measurements were averaged over two individually performed experiments and conducted in triplicates for each sample. Aggregate analysis. […] Furthermore, fluorescence microscopy was conducted by staining 1 µL preformed fibrils (1 mg/mL) with 9 µL ThT (50 µM). Brightfield microscopy was performed simultaneously to evaluate aggregation also for non ThT-active fibrils. The measurements were performed on a Leica DMi8 microscope with 10x air objective and equipped with a Leica MC170 HD camera with a filter setting λem = 527/30 nm upon excitation at λex = 480/40 nm) and processed with the Leica LASX software. To quantify size and number of microscopic aggregation of particles > 10 µm^2 at least 3 independently measured images were analyzed via the 3D object counter analysis tool of ImageJ, v 1.53f51. Sum–frequency generation. The SFG experiments were carried out with a femtosecond Ti: Sapphire amplified laser system (Spitfire Ace, Spectra–Physics, 800 nm, 40 fs, 1 kHz) with 5 W output power. We used 2 W to pump an optical parametric amplifier (TOPAS, light conversion) with a non–collinear difference frequency generation stage to generate broadband IR pulses. Another 1 W of the laser output passed through an etalon to generate narrowband visible pulses (10 cm^-1). The incident angles of the visible and IR beams were 36° and 41° with respect to the surface normal, respectively. The visible (13 µJ) and IR (5 µJ) pulses were overlapped spatially and temporally at the sample position. Subsequently, the generated SFG pulse was guided into a spectrograph (Acton SP 300i, Princeton Instruments), and detected with an EMCCD (Newton, Andor Technology). To avoid IR absorption of water vapor, we purged N2 for the measurement. All spectra were collected in the ssp (denoting s-, s- and p-polarized SFG, visible and IR, respectively) polarization combination. The spectra were normalized to the non–resonant signal taken from z–cut quartz after subtracting a background spectrum. […]

[3] = Turbidity, derived count rate of scattered light; assay type: physicochemical
Protocol: as §2
ways to determine turbidity of samples, this can be via transmittance and via scattering. Transmittance […]
as it is an easy and fast method.10,11 However, transmittance contributes not only from µm-sized aggregates but also nm-sized aggregates such as distinct fibrils, which makes hard to distinguish between fibril formation and micrometer sized aggregation. Although dynamic light scattering is a frequently applied method for determination of particle size, it cannot be conducted in solutions with anisotropic aggregates in micrometer size range, since the Stokes-Einstein relation is only applicable for homogeneous […] spherical particles.12 Further models describing scattering intensity and […]

[4] = system: HIV-1 infection of TZM-bl cells; experiment: HIV-1 infectivity enhancement assay, β-galactosidase luminescence; assay type: cell-based; conditions: for infectivity: infectivity class (low / medium / high) of each library peptide, main list in c1-c6, same classes repeated in sub-lists of sequences containing the hydrophobicity/charge patterns P+,H0,P+,H0,P0,H0,P0, P+,H0,P0,H0,P0,H0,P0, P+,H0,P0,H0; for Log10 Inf. rel. to EF-C: log10 of HIV-1 infection of TZM-bl cells relative to EF-C, Fig S15 source data, asymmetric std dev errors
[5] = assay type: physicochemical; conditions: ThT fluorescence relative to blank (42.1851851851852 a.u.)
Protocol: 4 µL of 1 mg/mL peptide fibrils solution is added to a 20 µL, 50 µM ThT–solution in PBS. The mixture is incubated for 15 min at RT to allow binding of ThT dye with β–sheet rich structures. For reference PBS (4 µL) was added instead of peptide fibril solution. The samples were placed in black UV Star® 384 microliter well–plates (Greiner bio–one). Fluorescence spectra were recorded on an Infinite® M1000 PRO microplate reader (Tecan) at λem = 488 nm upon excitation at λex = 440 nm with 10 nm bandwidths and multiple reads per well (3×3). Measurements were repeated in triplicates and averaged with standard deviation. […] Zeta-Potential. For the determination of the surface charge of aggregated peptides zeta-potential measurements were conducted with a Zetasizer Nano ZS, Malvern Instruments. Unless stated otherwise the peptides were dissolved from DMSO (10 mg/mL) in PBS (pH 7.4) to concentration of 1 mg/mL and incubated for 1d at RT. Just before the measurement the 60 µL of the peptides were further diluted in 600 µL KCl (aq, 1 mM) in a 1 mL disposable folded capillary cells (DTS–1060, Zetasizer Nano series, Malvern). The zeta potential of the peptides was derived from the electrophoretic mobility based on the Smoluchowski formula. All measurements were averaged over two individually performed experiments and conducted in triplicates for each sample. Aggregate analysis. […] Furthermore, fluorescence microscopy was conducted by staining 1 µL preformed fibrils (1 mg/mL) with 9 µL ThT (50 µM). Brightfield microscopy was performed simultaneously to evaluate aggregation also for non ThT-active fibrils. The measurements were performed on a Leica DMi8 microscope with 10x air objective and equipped with a Leica MC170 HD camera with a filter setting λem = 527/30 nm upon excitation at λex = 480/40 nm) and processed with the Leica LASX software. To quantify size and number of microscopic aggregation of particles > 10 µm^2 at least 3 independently measured images were analyzed via the 3D object counter analysis tool of ImageJ, v 1.53f51. Sum–frequency generation. The SFG experiments were carried out with a femtosecond Ti: Sapphire amplified laser system (Spitfire Ace, Spectra–Physics, 800 nm, 40 fs, 1 kHz) with 5 W output power. We used 2 W to pump an optical parametric amplifier (TOPAS, light conversion) with a non–collinear difference frequency generation stage to generate broadband IR pulses. Another 1 W of the laser output passed through an etalon to generate narrowband visible pulses (10 cm^-1). The incident angles of the visible and IR beams were 36° and 41° with respect to the surface normal, respectively. The visible (13 µJ) and IR (5 µJ) pulses were overlapped spatially and temporally at the sample position. Subsequently, the generated SFG pulse was guided into a spectrograph (Acton SP 300i, Princeton Instruments), and detected with an EMCCD (Newton, Andor Technology). To avoid IR absorption of water vapor, we purged N2 for the measurement. All spectra were collected in the ssp (denoting s-, s- and p-polarized SFG, visible and IR, respectively) polarization combination. The spectra were normalized to the non–resonant signal taken from z–cut quartz after subtracting a background spectrum.
as §1

Substance	infectivity [4]	Log10 Inf. rel. to EF-C [4]	Zeta-pot. / mV [2] [mV]	other results
EFEFQFNMWQ [JH1]	–	–	–	TEM: 1= fibrils, 0= aggregates (micelle), 0.5 = aggregates and fibrils, -1 = nothing obersved, STD prep [1]: 1; TEM: 1= fibrils, 0= aggregates (micelle), 0.5 = aggregates and fibrils, -1 = nothing obersved, STD prep ([1]; TEM): 1; Zeta category ( +1 = if > 4 mV;-1 = if < -4 mV; 0 = -4mV to 4 mV) [2]: 0 (0 = -4mV to 4 mV); Zeta category ( +1 = if > 4 mV;-1 = if < -4 mV; 0 = -4mV to 4 mV) ([2]; category derived from the zeta potential): 0 (0 = -4mV to 4 mV)
Lysozyme	–	–	–	Count Rate ([3]; derived count rate of scattered light, mean of n = 3): 217.9 kcps; Count Rate ([3]; derived count rate of scattered light, replicate 1): 304.4 kcps; Count Rate ([3]; derived count rate of scattered light, replicate 2): 195.7 kcps; Count Rate ([3]; derived count rate of scattered light, replicate 3): 153.6 kcps; Zeta Potential ([2]; mean of n = 3): 4.807; Zeta-Potential ([2]; replicate 1): 4.05; Zeta-Potential ([2]; replicate 2): 5.03; Zeta-Potential ([2]; replicate 3): 5.34
KKFQKKFQ [CN21]	low	-1.545	-9.19	–
HRRHFRHKITKKK [CN29]	low	-1.868	-9.223	–
FDPFDPFDP [CN24]	low	-1.6317	-10.9	–
EIEIEIEI [JR12]	low	-1.748	-8.92	–
NMWQKVGTPL [JG7]	low	-1.607	-9.62	–
ILKNLSRSRKIKIQIC [TM116]	medium	-0.4741	18	–
KIRGKFEKED [CN30]	low	-1.2355	-12.7	–
TKTLTKTL [CN25]	low	-1.671	-25.1	–
HGDKCHGDKC [CN2]	low	-1.991	-11.63	–
SISISRRI [CN28]	low	-1.548	-17	–
ILKNLSRSRKIKIQINMWQ [TM92]	medium	-0.4939	19.2	Log10 of Rel to EFC (Feb2021) ([4]; Feb2021, Log10 of infectivity relative to EF-C): -0.4939; Rel-to EFC (Feb-2021) ([4]; Feb2021, n-fold enhancement relative to EF-C): 0.3207; Zeta Count Rate Category ([3]; category 1 or 0 from count rate, key not given): 1; Zeta Count Rate / kcps ([3]; derived count rate of scattered light, mean, std deviation in next column): 306.5 kcps; Zeta category ( +1 = if > 4 mV;-1 = if < -4 mV; 0 = -4mV to 4 mV) ([2]; category from zeta potential): 1 (+1 = if > 4 mV); Zeta Pot. / mV ([2]; mean, Std Zeta in next column): 19.2 mV; Tht rel to blank (42.1851851851852) [5]: 3.339
EFEFQF [KB11]	low	-2.485	-24.5	–
KVKGVGK [CN27]	low	-1.587	-12.8	–
